The values below come from patent publication US8765799B2, “Streptospirole derivatives” (Sanofi, priority 2008, dated 2014).

The structures appear in SMILES notation. Converted amounts (≈) assume the structure as drawn.

For the first assay, the system named is S. aureus (ATCC 29213). The experiment in a line: Broth microdilution IC50 determination, S. aureus ATCC 29213. The class given is cell-based. The settings on record: Staphylococcus aureus, ATCC29213, assay mode Abs. (590 nm), 20 h incubation. The method, then:
(§1) The compounds of the formula (I) are used in a test as further outlined in Examples section in a single dose of 0.125-64μg/ml and a dose dependency is given as a IC50 value in Table 6. This Example describes the standard broth dilution method-microdilution used to determine the in vitro susceptibility of bacteria growing aerobically according to NCCLS M7-A7. The IC50 value of the compound to be tested is calculated as the inhibitory concentration of 50% at which 50% visible turbidity or the ATP level is inhibited. Compound stock solutions were prepared at concentrations of at least 1000μg/ml with methanol. After testing, the stock solution is aliquoted and stored at −80° C. Nystatin was dissolved in DMSO and then further dissolved in the respective culture medium. For every test strain following controls on each 384 well clear-transparent microtitration plate are needed: • drug-free growth control, • sterile control, and • Ciprofloxacin and Nystatin as reference compounds. For an IC50 determination at least ten or twenty serial dilutions (geometrical dilution with factor 2) were prepared. [table] The usual test concentrations range from 64 to 0.125μg/ml or 64 to 0.0001μg/ml for strong inhibition. At the specification of the concentration the inoculation volume has to be considered. The whole test volume (compound solution and inoculum) was prepared with 40μl and accordingly for Mycobacterium smegmatis 20μl. The serial dilutions with Ciprofloxacin and Nystatin were prepared in special 384 well clear-transparent microtitration plate and were transferred in each 384 well microtitration plate before inoculation. […] The exact colony number of each strain was determined by a surface culture method. […] Reading: The reading of the grown wells was done by means of a photometer for microtitration plates at 590 nm by absorbance mode. For Mycobacterium smegmatis the microtitration plates were measured by luminescence mode after incubation with 20μl BacTiter-Glo™/well for 5 minutes at room temperature protected from light. Evaluation: The IC50 values were determined in XLfit 4, model function 205.
For the compound `CCCCCCc1c(O)ccc2c1O[C@]1(C2=O)C(Cl)=C(Cl)C(=O)N1C` [(II), Streptospirole A], inhibition was half-maximal at 0.08 µg/mL (≈ 0.208 µM) (IC50).
The same measure, in the same setting: then `CC(C)CCCc1c(O)ccc2c1O[C@]1(C2=O)C(Cl)=C(Cl)C(=O)N1C` [(III), Streptospirole B], with 0.05 µg/mL (≈ 0.13 µM); and `CC[C@H](C)CCCc1c(O)ccc2c1O[C@]1(C2=O)C(Cl)=C(Cl)C(=O)N1C` [(IV), Streptospirole C], with 0.005 µg/mL (≈ 0.0126 µM).

For another assay, the system named is S. pyogenes (ATCC 12344). Briefly: Broth microdilution IC50 determination, S. pyogenes. Format: cell-based. The note with it: Streptococcus pyogenes, ATCC12344, assay mode Abs. (590 nm), 20 h incubation. Here is the method:
as §1
On the technique in general: Dilution methods test growth across graded concentrations, often in twofold steps.
In turn, `CCCCCCc1c(O)ccc2c1O[C@]1(C2=O)C(Cl)=C(Cl)C(=O)N1C` [(II), Streptospirole A] had an IC50 of 0.28 µg/mL (≈ 0.729 µM).
The same measure, in the same setting: next, `CC(C)CCCc1c(O)ccc2c1O[C@]1(C2=O)C(Cl)=C(Cl)C(=O)N1C` [(III), Streptospirole B]: 0.12 µg/mL (≈ 0.312 µM); `CC[C@H](C)CCCc1c(O)ccc2c1O[C@]1(C2=O)C(Cl)=C(Cl)C(=O)N1C` [(IV), Streptospirole C]: 0.04 µg/mL (≈ 0.1 µM).

The test system of a further assay is M. smegmatis (ATCC 607). The experiment in a line: Broth microdilution IC50 determination, M. smegmatis. The note with it: Mycolicibacterium smegmatis, ATCC607, assay mode Lum. (ATP level), 48 h incubation. The class given is cell-based, Mycobacterium smegmatis. The text has this: (§2) A test which is based on determining the intracellular concentration of ATP is employed for measuring the bacterial viability. It relies on the fact that intact living bacteria have higher intra-cellular ATP levels than bacterial cells which are damaged by the action of antimicrobials. The formulation of the reagent supports bacterial cell lysis and ATP is quantified luminometrically by a luciferin/luciferase reaction. The compounds of the formula (I) are used in a test as further outlined in Examples section in a single dose of 0.125-64μg/ml and a dose dependency is given as a IC50 value in Table 6. This Example describes the standard broth dilution method-microdilution used to determine the in vitro susceptibility of bacteria growing aerobically according to NCCLS M7-A7. The IC50 value of the compound to be tested is calculated as the inhibitory concentration of 50% at which 50% visible turbidity or the ATP level is inhibited. Compound stock solutions were prepared at concentrations of at least 1000μg/ml with methanol. After testing, the stock solution is aliquoted and stored at −80° C. Nystatin was dissolved in DMSO and then further dissolved in the respective culture medium. For every test strain following controls on each 384 well clear-transparent microtitration plate are needed: • drug-free growth control, • sterile control, and • Ciprofloxacin and Nystatin as reference compounds. For Mycobacterium smegmatis a special 384 well white microtitration plate was used. For an IC50 determination at least ten or twenty serial dilutions (geometrical dilution with factor 2) were prepared. [table] […] The exact colony number of each strain was determined by a surface culture method. […] Reading: The reading of the grown wells was done by means of a photometer for microtitration plates at 590 nm by absorbance mode. For Mycobacterium smegmatis the microtitration plates were measured by luminescence mode after incubation with 20μl BacTiter-Glo™/well for 5 minutes at room temperature protected from light. Evaluation: The IC50 values were determined in XLfit 4, model function 205.
As to `CCCCCCc1c(O)ccc2c1O[C@]1(C2=O)C(Cl)=C(Cl)C(=O)N1C` [(II), Streptospirole A], the concentration for half-maximal inhibition (IC50) is 0.4 µg/mL (≈ 1.04 µM).
The same measure, in the same setting: then `CC(C)CCCc1c(O)ccc2c1O[C@]1(C2=O)C(Cl)=C(Cl)C(=O)N1C` [(III), Streptospirole B], with 0.26 µg/mL (≈ 0.677 µM); and `CC[C@H](C)CCCc1c(O)ccc2c1O[C@]1(C2=O)C(Cl)=C(Cl)C(=O)N1C` [(IV), Streptospirole C], with 0.09 µg/mL (≈ 0.226 µM).

The next assay relates to E. faecalis (ATCC 29212). Briefly: Broth microdilution IC50 determination, E. faecalis. The class given is cell-based. The note with it: Enterococcus faecalis, ATCC29212, assay mode Abs. (590 nm), 20 h incubation. Here is the method: as §1
On to `CCCCCCc1c(O)ccc2c1O[C@]1(C2=O)C(Cl)=C(Cl)C(=O)N1C` [(II), Streptospirole A], for which the IC50 is 0.87 µg/mL (≈ 2.26 µM).
On the same count and under the same terms, next, `CC(C)CCCc1c(O)ccc2c1O[C@]1(C2=O)C(Cl)=C(Cl)C(=O)N1C` [(III), Streptospirole B]: 0.59 µg/mL (≈ 1.54 µM); `CC[C@H](C)CCCc1c(O)ccc2c1O[C@]1(C2=O)C(Cl)=C(Cl)C(=O)N1C` [(IV), Streptospirole C]: 0.07 µg/mL (≈ 0.176 µM).

For the next assay, the system named is S. pneumoniae (DSMZ 11865). The experiment in a line: Broth microdilution IC50 determination, S. pneumoniae. The class given is cell-based. The note with it: Streptococcus pneumoniae, DSMZ11865, assay mode Lum.
From the text: as §2, with “For” for “For Mycobacterium smegmatis a special 384 well white microtitration plate was used. For”, “The usual test concentrations range from 64 to 0.125μg/ml or 64 to 0.0001μg/ml for strong inhibition.” for “[table]”
Take `CCCCCCc1c(O)ccc2c1O[C@]1(C2=O)C(Cl)=C(Cl)C(=O)N1C` [(II), Streptospirole A]: half-maximal inhibition (IC50) was put at 0.28 µg/mL (≈ 0.729 µM).
The same measure, in the same setting: next, `CC(C)CCCc1c(O)ccc2c1O[C@]1(C2=O)C(Cl)=C(Cl)C(=O)N1C` [(III), Streptospirole B]: 0.34 µg/mL (≈ 0.885 µM); `CC[C@H](C)CCCc1c(O)ccc2c1O[C@]1(C2=O)C(Cl)=C(Cl)C(=O)N1C` [(IV), Streptospirole C]: 0.21 µg/mL (≈ 0.527 µM).

The next assay has as its system S. aureus (ATCC 33592). The experiment in a line: Broth microdilution IC50 determination, S. aureus ATCC 33592. The note with it: Staphylococcus aureus, ATCC33592, assay mode Abs. (590 nm). Format: cell-based. The method, then: as §1, with “prepared.” for “prepared. [table]”
On to `CCCCCCc1c(O)ccc2c1O[C@]1(C2=O)C(Cl)=C(Cl)C(=O)N1C` [(II), Streptospirole A], for which the IC50 came out at 0.03 µg/mL (≈ 0.0781 µM).
Still for that read-out and setting: next, `CC(C)CCCc1c(O)ccc2c1O[C@]1(C2=O)C(Cl)=C(Cl)C(=O)N1C` [(III), Streptospirole B]: 0.02 µg/mL (≈ 0.052 µM); `CC[C@H](C)CCCc1c(O)ccc2c1O[C@]1(C2=O)C(Cl)=C(Cl)C(=O)N1C` [(IV), Streptospirole C]: 0.003 µg/mL (≈ 0.00753 µM).

For orientation: IC50 means the concentration that inhibits the measured activity by half.
